Reference: paper PMC10210183 (ACS Omega, 2023)

Target: eqBChE (Equus caballus, UniProt P81908)
Test: biochemical
Conditions: read-out: BChE % Inhibition ± SD @ 1 μM, eqBChE, 1 μM

Chain of eqBChE (P81908 whole entry): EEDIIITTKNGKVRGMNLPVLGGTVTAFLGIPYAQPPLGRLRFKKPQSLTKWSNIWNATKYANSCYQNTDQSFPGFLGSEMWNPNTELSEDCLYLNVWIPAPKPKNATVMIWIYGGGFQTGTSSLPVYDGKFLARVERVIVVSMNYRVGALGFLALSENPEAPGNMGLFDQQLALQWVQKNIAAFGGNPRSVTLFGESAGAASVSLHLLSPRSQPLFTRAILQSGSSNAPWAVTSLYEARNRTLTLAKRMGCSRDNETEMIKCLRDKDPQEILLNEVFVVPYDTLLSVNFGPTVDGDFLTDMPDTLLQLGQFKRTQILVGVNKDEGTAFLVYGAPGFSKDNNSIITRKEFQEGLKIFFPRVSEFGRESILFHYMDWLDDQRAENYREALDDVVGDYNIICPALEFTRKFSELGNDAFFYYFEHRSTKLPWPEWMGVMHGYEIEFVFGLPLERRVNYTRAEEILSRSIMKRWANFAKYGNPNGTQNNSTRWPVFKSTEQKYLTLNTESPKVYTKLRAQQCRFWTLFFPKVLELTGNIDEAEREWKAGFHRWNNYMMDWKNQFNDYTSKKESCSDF

SMILES | inhibition at 1 µM [%]
COc1cc(/C=C/c2cc[n+](Cc3ccccc3)cc2)cc(OC)c1 [Compound 7a, (E)-1-Benzyl-4-(3,5-dimethoxystyryl)pyridin-1-ium bromide] | 20
COc1ccc2cc(/C=C/c3cc[n+](Cc4ccccc4)cc3)ccc2c1 [Compound 7aq, (E)-1-Benzyl-4-(2-(6-methoxynaphthalen-2-yl)vinyl)pyridin-1-ium bromide] | 60
